In ChEMBL document CHEMBL2157973, “An efficient synthesis of 3-OBn-6β,14-epoxy-bridged opiates from naltrexone and identification of a related dual MOR inverse agonist/KOR agonist” (Bioorg Med Chem Lett, 2012):

Tests used:
Format in all cases: functional, cell-based
[1] = target: Kappa-type opioid receptor (Homo sapiens) (UniProt P41145); test: Agonist activity at human kappa opioid receptor expressed in CHO cells after 3 hrs by [35S]GTPgammaS binding assay relative to control
Mu-type opioid receptor [2] = target: T1, Mu-type opioid receptor (Homo sapiens, UniProt P35372); test: Inverse agonist activity at human recombinant mu opioid receptor expressed in CHO cells after 3 hrs by [35S]GTPgammaS binding assay
Mu-type opioid receptor [3] = target: T1, Mu-type opioid receptor; test: Inverse agonist activity at human recombinant mu opioid receptor expressed in CHO cells after 3 hrs by [35S]GTPgammaS binding assay relative to KC-2-009
[4] = target: Kappa-type opioid receptor (Homo sapiens) (UniProt P41145); test: Agonist activity at human kappa opioid receptor expressed in CHO cells after 3 hrs by [35S]GTPgammaS binding assay

T1 sequence (P35372 whole entry): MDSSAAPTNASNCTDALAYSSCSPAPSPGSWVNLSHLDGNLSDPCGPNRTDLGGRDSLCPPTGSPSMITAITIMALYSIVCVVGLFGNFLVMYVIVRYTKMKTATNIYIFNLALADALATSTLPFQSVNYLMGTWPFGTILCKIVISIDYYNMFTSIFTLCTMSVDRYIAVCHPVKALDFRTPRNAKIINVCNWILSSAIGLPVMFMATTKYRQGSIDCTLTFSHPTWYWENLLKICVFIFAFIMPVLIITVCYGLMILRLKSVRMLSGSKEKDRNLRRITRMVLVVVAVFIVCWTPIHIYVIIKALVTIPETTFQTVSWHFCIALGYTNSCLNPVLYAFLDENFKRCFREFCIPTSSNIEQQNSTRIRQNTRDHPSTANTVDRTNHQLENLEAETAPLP
Chain of Kappa-type opioid receptor (Homo sapiens) (P41145 whole entry): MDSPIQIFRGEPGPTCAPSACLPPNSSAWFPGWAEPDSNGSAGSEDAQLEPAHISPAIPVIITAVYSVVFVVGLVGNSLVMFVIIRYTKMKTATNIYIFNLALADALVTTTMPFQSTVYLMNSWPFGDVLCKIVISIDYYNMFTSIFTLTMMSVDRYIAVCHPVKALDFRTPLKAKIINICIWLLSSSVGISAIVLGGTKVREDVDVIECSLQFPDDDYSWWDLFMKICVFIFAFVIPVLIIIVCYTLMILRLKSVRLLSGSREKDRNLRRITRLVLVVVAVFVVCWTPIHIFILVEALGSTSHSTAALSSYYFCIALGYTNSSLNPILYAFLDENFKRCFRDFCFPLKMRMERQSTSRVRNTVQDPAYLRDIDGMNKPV

| SMILES | Emax [1] [%] | EC50 (Mu-type opioid receptor [2]) [nM] | Emax (Mu-type opioid receptor [3]) [%] | ED50 [4] [nM] |
| --- | --- | --- | --- | --- |
| CS(=O)(=O)O[C@@H]1CC[C@@]2(O)[C@H]3Cc4ccc(O)c5c4[C@@]2(CCN3CC2CC2)[C@H]1O5 | 48 | 2.6 | 60.5 | 26 |
| Oc1ccc2c3c1O[C@H]1[C@H](O)CC[C@@]4(O)[C@@H](C2)N(CC2CC2)CC[C@]314 |  |  | 89 |  |
